Measured values: publication PMC7187627 (Antimicrobial Agents and Chemotherapy, 2019)
“Also recorded” adds a separate entry of the source.

Test system: gut microbiota
Assay: Fecal microbiome analysis by 16S rRNA gene sequencing
Format: in vivo, human
Experimental: Fecal microbiota profiles were measured for each sample as each operational taxonomic unit (OTU) species present and the relative abundance of that species, based on a region of 469 bp encompassing the V3 and V4 hypervariable regions of the 16S rRNA gene, following protocols developed at the Department of Microbiology and Immunology, University of Maryland School of Medicine Institute for Genome Sciences, Baltimore, MD ([40][–][42]).
(i) Sample collection and storage and DNA extraction. Fecal samples were collected at nine time points during the study for fecal microbiome analysis: twice before the first dose, on days 1, 4, 7, 9, and 12, and approximately 24 h prior to follow-up visits on day 18 and day 29. The subject was allowed to collect and bring the first fecal sample when admitted (collected within 24 h of admission and kept refrigerated until collected by staff). DNA was extracted from 150 mg of archived stool samples stored at –80°C for 16S rRNA gene amplification and sequencing. Cell lysis was initiated by adding 50 μl of lyzosyme (10 mg/ml), 6 μl of mutanolysin (25,000 U/ml; Sigma-Aldrich), and 3 μl of lysostaphin (4,000 U/ml in sodium acetate; Sigma-Aldrich) and 41 μl of TE50 buffer (10 mM Tris-HCl, 50 mM EDTA [pH 8.0]). Following a 1-h incubation at 37°C, 10 μl of proteinase K (20 mg/ml), 100 μl of 10% SDS, and 20 μl of RNase A (20 mg/ml) were added to the mixture and incubated for 1 h at 55°C. Microbial cells were lysed by mechanical disruption using a bead beater (FastPrep instrument; Qbiogene) set at 6.0 m/s for 30 s. DNA was purified from the lysate using the QIAsymphony robotics platform, consistently providing between 5 and 20 μg of high-quality and amplifiable whole genomic DNA. Following DNA quantitation via the Quant-iTTM PicoGreen double-stranded DNA (dsDNA) assay kit (Life Technologies), samples were diluted to a 5-ng/μl concentration.
PCRs with dually barcoded 16S rRNA universal primers (319F/806R) were set up using a semiautomated platform with a ViaFlo 96 high-performance 96-channel pipettor and performed on Bio-Rad Tetrad 2 instruments with up to 576 dual index barcoding ([40]). […] The cycling parameters were 30 s of denaturation at 98°C, followed by 30 cycles of 15 s at 98°C (denaturing), 15 s at 58°C (annealing), and 15 s at 72°C (elongation), with a final extension at 72°C for 60 s. Controls included a no-template control for each barcode combination, extraction controls, and a DNA sample of known composition (positive control). The presence of amplicons was confirmed by gel electrophoresis on a 2% E-gel 96. PCR products were normalized using the SequalPrep normalization kit (Life Technologies, Carlsbad, CA) and pooled in equimolar amounts (25 ng) in a single tube. Amplification primers and reaction buffer were removed from the pooled amplicon mixtures using an AMPure kit (Agencourt). The purified amplicon mixtures (up to 576 per pool) were sequenced on an Illumina MiSeq instrument using the 300-bp paired-end protocol (MiSeq 300PE) at the Genomics Resource Center (GRC) at the Institute for Genome Sciences, University of Maryland School of Medicine.
(iii) Bioinformatic analysis. For sequence quality control, assembly, and taxonomic assignments, a custom bioinformatics pipeline ([40]) was applied that relies on QIIME software ([43]), UCHIME ([44]), and the RDP Naïve Bayesian classifier ([45]). Baseline for fecal microbiome assessments was defined as the mean of the predose assessments on day 1. Presence was defined as positive abundance. The presence of each OTU species and the shift in presence/absence occurrence from baseline were tabulated by treatment. Shifts were categorized as no change, appearance, and disappearance.
Additional 16S rRNA data analysis was performed at the Division of Biomedical Informatics and Personalized Medicine, University of Colorado. Joined and quality-filtered sequences sharing >97% sequence similarity were binned as OTUs. […]

O=c1cc(NCCCN[C@@H]2CCOc3c(Br)cc(Br)cc32)[nH]c2ccsc12 [CRS3123]
median weighted UniFrac distance to placebo arm (community composition) (200 mg, day 9, P = 0.006): 0.361
proteobacteria, maximum relative abundance (200 mg, pretreatment value 0.8%): 1.6%
median weighted UniFrac distance to placebo arm (community composition) (400 mg, day 9, P = 0.027): 0.440
median weighted UniFrac distance to placebo arm (community composition) (400 mg, day 29, P = 0.177): 0.4480
proteobacteria, relative abundance (600 mg): < 10%
median weighted UniFrac distance to placebo arm (community composition) (600 mg, day 9, P = 0.013): 0.663
median weighted UniFrac distance to placebo arm (community composition) (600 mg, day 29, P = 0.077): 0.470
increase in proteobacteria (200-mg and 400-mg doses): did not see an increase
proportion of the major phyla in stool over time (200-mg dosing group, not different from placebo): minimal changes over time
relative abundance of Firmicutes (400-mg- and 600-mg-BID dosing groups, Bacteroidetes and Actinobacteria increased): decreased
changes in highly abundant intestinal genera (after 9 days of twice-daily dosing, exception target genus Clostridium): no significant changes
loss of phyla during treatment (any dose): no phyla were lost
time until composition was back to baseline levels after stopping the treatment (any dose): ≤ 7 days
effect on commensal anaerobes (Bacteroides, bifidobacteria, Clostridium clusters XIVa and IV) (stool microbiome of healthy subjects): inactive; also recorded: did not impact
percentage of subjects with Clostridium species isolated at baseline but not at subsequent visits (treatment phase, day 1 through day 10, versus placebo): greater in the CRS3123 treatment groups than in the placebo group
disruption of normal gut microbiota (two lower doses (200, 400 mg), 10 days twice daily): minimal disruption
